Experimental data published in patent publication US20150004134A1, “TREATMENT OF CANCER WITH HETEROCYCLIC INHIBITORS OF GLUTAMINASE” (Calithera Biosciences, Inc., priority 2012, published 2015).

What follows are compounds tested against T1, recombinant form of Glutaminase 1 (GAC) (Homo sapiens, UniProt O94925) (assay: Recombinant Enzyme Assay - Time Dependence (60 min preincubation)). Conditions: not given.
T1 sequence (O94925 137-598 isoform O94925-3 limits assumed): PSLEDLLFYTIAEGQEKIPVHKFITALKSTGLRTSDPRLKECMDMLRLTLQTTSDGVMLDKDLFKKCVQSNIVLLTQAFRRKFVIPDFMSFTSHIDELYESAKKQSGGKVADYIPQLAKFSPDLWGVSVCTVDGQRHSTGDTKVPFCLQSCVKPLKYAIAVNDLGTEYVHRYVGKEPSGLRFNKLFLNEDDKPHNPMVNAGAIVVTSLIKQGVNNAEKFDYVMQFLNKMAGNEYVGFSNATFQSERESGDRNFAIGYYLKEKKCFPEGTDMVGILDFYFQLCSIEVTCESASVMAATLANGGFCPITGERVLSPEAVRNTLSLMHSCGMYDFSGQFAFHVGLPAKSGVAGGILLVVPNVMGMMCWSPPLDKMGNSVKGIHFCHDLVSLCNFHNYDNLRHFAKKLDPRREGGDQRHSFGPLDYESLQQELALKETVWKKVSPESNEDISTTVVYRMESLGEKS
Type: biochemical
Description: The enzyme/compound mix was sealed with sealing foil (USA Scientific) and allowed to incubate, with mild agitation, for 60 minutes at 20° C. Enzymatic reaction was started with the addition of 50 μL of substrate solution (50 mM Tris-HCl pH 8.0, 0.2 mM EDTA, 150 mM K2HPO4, 0.1 mg/ml BSA, 1 mM DTT, 20 mM L-glutamine, 2 mM NAD^+, and 10 ppm antifoam) and read in a Molecular Devices M5 plate reader at 20° C. The plate reader was configured to read absorbance (=340 nm) in kinetic mode for 15 minutes. Data was recorded as milli-absorbance units per minute and slopes were compared to a control compound and a DMSO-only control on the same plate. Compounds with slopes less than the DMSO control were considered inhibitors and plate variability was assessed using the control compound.
Work on `O=C(Cc1cccc(Br)c1)Nc1nnc(CCCCc2nnc(NC(=O)Cc3cccc(Br)c3)s2)s1` [Compound 284] yielded an IC50 of 50 nM.

Same assay, conditions: read-out: GAC Delta N2 IC50 60 min preinc
`O=C(Cc1ccccc1)Nc1ccc(CCCCc2nnc(NC(=O)Cc3cccc(Cn4cccn4)c3)s2)nn1` [Compound 395] was tested, and the IC50 was 4 nM.
`COc1cccc(CC(=O)Nc2nnc(CCCCc3ccc(NC(=O)Cc4ccccc4)nn3)s2)c1OC` [Compound 397] showed an IC50 of 8 nM.
In the case of `COc1cc(CC(=O)Nc2nnc(CCCCc3ccc(NC(=O)Cc4ccccc4)nn3)s2)cc(OC)c1` [Compound 398], the IC50 is reported as 4 nM.
For `CC(C)(C)OC(=O)Nc1ccc(CC(=O)Nc2nnc(CCCCc3ccc(NC(=O)Cc4ccccc4)nn3)s2)cc1` [Compound 400], the IC50 was 15 nM.
For `CC(C)(C)OC(=O)NCc1ccc(CC(=O)Nc2nnc(CCCCc3ccc(NC(=O)Cc4ccccc4)nn3)s2)cc1` [Compound 401], the IC50 was 5 nM.
`CC(C)(C)OC(=O)NCc1cccc(CC(=O)Nc2nnc(CCCCc3ccc(NC(=O)Cc4cccc(OC(F)(F)F)c4)nn3)s2)c1` [Compound 586] showed an IC50 of 13 nM.
With `O=C(Cc1ccccc1OC(F)(F)F)Nc1ccc(CCCCc2nnc(NC(=O)Cc3ccccc3)s2)nn1` [Compound 614] the IC50 was 8 nM.
`O=C(Cc1ccc(OC(F)(F)F)cc1)Nc1ccc(CCCCc2nnc(NC(=O)Cc3ccccc3)s2)nn1` [Compound 615] gave an IC50 of 9 nM.
Compound `CC(C(=O)Nc1nnc(CCCCc2ccc(NC(=O)Cc3cccc(OC(F)(F)F)c3)nn2)s1)c1ccccc1` (stereo not drawn) [Compound 636] has an IC50 of 8 nM.
Compound `COc1cccc(CC(=O)Nc2nnc(CCCCc3ccc(NC(=O)Cc4cccc(OC(F)(F)F)c4)nn3)s2)c1` [Compound 658] has an IC50 of 5 nM.
`O=C(Cc1cccc(OC(F)(F)F)c1)Nc1ccc(CCCCc2nnc(NC(=O)Cc3cc(F)ccc3F)s2)nn1` [Compound 659] was tested, and the IC50 was 10 nM.
`O=C(Cc1cccc(OC(F)(F)F)c1)Nc1ccc(CCCCc2nnc(NC(=O)Cc3cc(F)cc(F)c3)s2)nn1` [Compound 662] showed an IC50 of 7 nM.
`O=C(Cc1cccc(OC(F)(F)F)c1)Nc1ccc(CCCCc2nnc(NC(=O)Cc3cccc(OC(F)F)c3)s2)nn1` [Compound 668] gave an IC50 of 9 nM.
For `O=C(Cc1cccc(OC(F)(F)F)c1)Nc1ccc(CCCCc2nnc(NC(=O)Cc3cccc(OCC(F)(F)F)c3)s2)nn1` [Compound 669], the IC50 was 21 nM.
Work on `O=C(Cc1cccc(OC(F)(F)F)c1)Nc1ccc(CCCCc2nnc(NC(=O)Cc3ccncc3)s2)nn1` [Compound 672] yielded an IC50 of 10 nM.
For `O=C(Cc1cccc(OC(F)(F)F)c1)Nc1ccc(CCCCc2nnc(NC(=O)Cc3ccccc3F)s2)nn1` [Compound 673], the IC50 was 6 nM.
In the case of `CSc1cccc(CC(=O)Nc2nnc(CCCCc3ccc(NC(=O)Cc4cccc(OC(F)(F)F)c4)nn3)s2)c1` [Compound 674], the IC50 is reported as 8 nM.

These compounds were tested on P493-6 (myc "on") cells (assay: Cell Proliferation Assay). Conditions: P493-6, 72 h, read-out: Cell prolif P493 72 h IC50, P493-6 cells, 72 h.
Type: cell-based
How it was run: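 P493-6 cells with myc on, 10,000 per well in RPMI/10% FBS, exposed to serially diluted compound (0.5% DMSO final) for 72 h at 37 °C, 5% CO2. Antiproliferative effect read by Cell Titer Glo luminescence or Viacount FACS viability count.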
With `O=C(Cc1ccccc1)Nc1ccc(CCCCc2nnc(NC(=O)Cc3cccc(Cn4cccn4)c3)s2)nn1` [Compound 395] the IC50 was 15 nM.
`COc1cccc(CC(=O)Nc2nnc(CCCCc3ccc(NC(=O)Cc4ccccc4)nn3)s2)c1OC` [Compound 397] gave an IC50 of 41 nM.
Work on `COc1cc(CC(=O)Nc2nnc(CCCCc3ccc(NC(=O)Cc4ccccc4)nn3)s2)cc(OC)c1` [Compound 398] yielded an IC50 of 23 nM.
`CC(C)(C)OC(=O)Nc1ccc(CC(=O)Nc2nnc(CCCCc3ccc(NC(=O)Cc4ccccc4)nn3)s2)cc1` [Compound 400] showed an IC50 of 53 nM.
`CC(C)(C)OC(=O)NCc1ccc(CC(=O)Nc2nnc(CCCCc3ccc(NC(=O)Cc4ccccc4)nn3)s2)cc1` [Compound 401] gave an IC50 of 11 nM.
In the case of `CCCC(=O)OCN(C(=O)Cc1cccc(CC(=O)N2CCC(F)(F)CC2)c1)c1nnc(CCCCc2ccc(NC(=O)Cc3ccccc3)nn2)s1` [Compound 570], the IC50 is reported as 9 nM.
Compound `CC(C)(C)OC(=O)NCc1cccc(CC(=O)Nc2ccc(CCCCc3nnc(NC(=O)Cc4cccc(CNC(=O)OC(C)(C)C)c4)s3)nn2)c1` [Compound 571] has an IC50 of 10 nM.
`CCOC(=O)NCc1cccc(CC(=O)Nc2ccc(CCCCc3nnc(NC(=O)Cc4cccc(CNC(=O)OCC)c4)s3)nn2)c1` [Compound 572] was tested, and the IC50 was 4 nM.
With `CCOC(=O)NCc1cc(C(C)C(=O)Nc2nnc(CCCCc3ccc(NC(=O)Cc4ccccc4)nn3)s2)ccc1F` (stereo not drawn) [Compound 574] the IC50 was 28 nM.
Work on `COc1ccc(CC(=O)Nc2nnc(CCCCc3ccc(NC(=O)Cc4ccccc4)nn3)s2)cc1O` [Compound 582] yielded an IC50 of 46 nM.
`Nc1ccc(CCCCc2nnc(NC(=O)Cc3cccc(OC(F)(F)F)c3)s2)nn1` [Compound 584] was tested, and the IC50 was 1400 nM.
Compound `COC(=O)NC(C)c1cccc(CC(=O)Nc2ccc(CCCCc3nnc(NC(=O)Cc4ccccc4)s3)nn2)c1` (stereo not drawn) [Compound 589] has an IC50 of 25 nM.
Work on `CC(C(=O)Nc1nnc(CCCCc2ccc(NC(=O)Cc3cccc(CNC(=O)OCCF)c3)nn2)s1)c1ccccc1` (stereo not drawn) [Compound 591] yielded an IC50 of 33 nM.
`CC(C)NC(=O)OC(C)c1cccc(CC(=O)Nc2nnc(CCCCc3ccc(NC(=O)Cc4ccccc4)nn3)s2)c1` (stereo not drawn) [Compound 598] was tested, and the IC50 was 4 nM.
Work on `CC(C(=O)Nc1ccc(CCCCc2nnc(NC(=O)Cc3ccccc3)s2)nn1)c1ccc(F)c(CN(C)C(=O)OC(C)(C)C)c1` (stereo not drawn) [Compound 599] yielded an IC50 of 39 nM.
For `CC(NC(=O)OC(C)(C)C)c1cccc(CC(=O)Nc2ccc(CCCCc3nnc(NC(=O)C(C)c4ccccc4)s3)nn2)c1` (stereo not drawn) [Compound 603], the IC50 was 23 nM.
Work on `COC(C(=O)Nc1nnc(CCCCc2ccc(NC(=O)Cc3cccc(CNC(=O)CC(O)C(F)(F)F)c3)nn2)s1)c1ccccc1` (stereo not drawn) [Compound 604] yielded an IC50 of 42 nM.
In the case of `COC(C(=O)Nc1nnc(CCCCc2ccc(NC(=O)Cc3cccc(CNC(=O)CC(C)(O)C(F)(F)F)c3)nn2)s1)c1ccccc1` (stereo not drawn) [Compound 605], the IC50 is reported as 18 nM.
For `CC(C(=O)Nc1nnc(CCCCc2ccc(NC(=O)Cc3cccc(CNC(=O)CC(O)C(F)(F)F)c3)nn2)s1)c1ccccc1` (stereo not drawn) [Compound 606], the IC50 was 45 nM.
`CC(C(=O)Nc1nnc(CCCCc2ccc(NC(=O)Cc3cccc(CNC(=O)CC(C)(O)C(F)(F)F)c3)nn2)s1)c1ccccc1` (stereo not drawn) [Compound 607] showed an IC50 of 47 nM.
Compound `CCNC(=O)OC(C)c1cccc(CC(=O)Nc2ccc(CCCCc3nnc(NC(=O)Cc4ccccc4)s3)nn2)c1` (stereo not drawn) [Compound 610] has an IC50 of 11 nM.
Work on `CC(O)c1cccc(CC(=O)Nc2ccc(CCCCc3nnc(NC(=O)Cc4ccccc4)s3)nn2)c1` (stereo not drawn) [Compound 611] yielded an IC50 of 40 nM.
`CC(C(=O)Nc1ccc(CCCCc2nnc(NC(=O)C(C)c3ccccc3)s2)nn1)c1ccccc1` (stereo not drawn) [Compound 613] gave an IC50 of 450 nM.
`CS(=O)(=O)CCCOc1cccc(CC(=O)Nc2ccc(CCCCc3nnc(NC(=O)Cc4ccccc4)s3)nn2)c1` [Compound 623] gave an IC50 of 26 nM.
In the case of `O=C(O)Cc1cccc(OCC(=O)Nc2nnc(CCCCc3ccc(NC(=O)Cc4ccccc4)nn3)s2)c1` [Compound 627], the IC50 is reported as 850 nM.
`COC(=O)Cc1cccc(OCC(=O)Nc2nnc(CCCCc3ccc(NC(=O)Cc4ccccc4)nn3)s2)c1` [Compound 628] was tested, and the IC50 was 170 nM.
`CS(=O)(=O)Cc1cccc(CC(=O)Nc2nnc(CCCCc3ccc(NC(=O)Cc4ccccc4)nn3)s2)c1` [Compound 634] gave an IC50 of 48 nM.
With `O=C(Cc1ccccc1)Nc1nnc(CCCCc2nnc(NC(=O)Cc3ccccc3)o2)o1` [Compound 637] the IC50 was over 50000 nM.
With `O=C(Cc1cccnc1)Nc1nnc(CCSCCc2nnc(NC(=O)Cc3cccnc3)s2)s1` [Compound 638] the IC50 was 5700 nM.
`Cc1noc(Cc2cccc(CC(=O)Nc3ccc(CCCCc4nnc(NC(=O)Cc5ccccc5)s4)nn3)c2)n1` [Compound 648, 2-(3-((3-methyl-1,2,4-oxadiazol-5-yl)methyl)phenyl)-N-(6-(4-(5-(2-phenylacetamido)-1,3,4-thiadiazol-2-yl)butyl)pyridazin-3-yl)acetamide] was tested, and the IC50 was 11 nM.
Work on `O=C(Cc1ccccc1)Nc1ccc(CCCCc2nnc(NC(=O)Cc3cccc4c3CNC4)s2)nn1` [Compound 650] yielded an IC50 of 140 nM.
Work on `CC(=O)N1Cc2cccc(CC(=O)Nc3nnc(CCCCc4ccc(NC(=O)Cc5ccccc5)nn4)s3)c2C1` [Compound 651] yielded an IC50 of 37 nM.
`Cc1nnc(Cc2cccc(CC(=O)Nc3ccc(CCCCc4nnc(NC(=O)Cc5ccccc5)s4)nn3)c2)o1` [Compound 652, 2-(3-((5-methyl-1,3,4-oxadiazol-2-yl)methyl)phenyl)-N-(6-(4-(5-(2-phenylacetamido)-1,3,4-thiadiazol-2-yl)butyl)pyridazin-3-yl)acetamide] showed an IC50 of 39 nM.
With `CC(NC(=O)OC(C)(C)C)c1cc(CC(=O)Nc2nnc(CCCCc3ccc(NC(=O)Cc4ccccc4)nn3)s2)ccc1F` (stereo not drawn) [Compound 653] the IC50 was 10 nM.
`CC(NC(=O)OC(C)(C)C)c1cc(CC(=O)Nc2ccc(CCCCc3nnc(NC(=O)Cc4ccccc4)s3)nn2)ccc1F` (stereo not drawn) [Compound 654] showed an IC50 of 7 nM.
For `O=C(Cc1ccccc1)Nc1ccc(CCCCc2nnc(NC(=O)Cc3cccc(OC(F)F)c3)s2)nn1` [Compound 664], the IC50 was 60 nM.

Same assay, conditions: P493-6, 72 h, read-out: Cell prolif P493 72 h IC50, P493 cells, 72 h
With `O=C(Cc1ccccc1)Nc1ccc(CCCCc2ccc(NC(=O)Cc3ccccc3)nn2)nn1` [Compound 1038] the IC50 was 1500 nM.

Same assay, conditions: read-out: Cell prolif P493 72 h IC50; 72 h
For `[2H]C([2H])(CCc1nnc(NC(=O)Cc2ccccn2)s1)C([2H])([2H])c1ccc(NC(=O)Cc2cccc(OC(F)(F)F)c2)nn1` [Compound 727], the IC50 was 12 nM.

Same assay, conditions: read-out: Cell prolif P493 72 h IC50; P493-6 cells, 72 h
Work on `Nc1nnc(CCCCc2ccc(NC(=O)Cc3cccc(OC(F)(F)F)c3)nn2)s1` [Compound 657, N-(6-(4-(5-amino-1,3,4-thiadiazol-2-yl)butyl)pyridazin-3-yl)-2-(3-(trifluoromethoxy)phenyl)acetamide] yielded an IC50 of 1500 nM.
